According to US8410126B2, “Pyrimidine inhibitors of PKTK2” (Boehringer Ingelheim International GmbH, priority 2009, dated 2013):

Columns and labels:
PTK2 [1] = biological target: T1, PTK2 (Homo sapiens, UniProt Q05397); assay: PTK2 enzyme test Assay 2 (DELFIA, poly-Glu-Tyr substrate, PT66 antibody); type: biochemical; conditions: Assay 2 (values marked *); 1 h pre-incubation, 50 μM ATP mix, final DMSO 0.5%
T1 construct: purchased Invitrogen PV3832
Text: (§1) This test uses active PTK2 enzyme (Invitrogen Code PV3832) and poly-Glu-Tyr (4:1, Sigma P-0275) as the kinase substrate. The kinase activity is detected by means of the phosphorylation of the substrate in a DELFIA™ assay. The phosphorylated substrate is detected with the europium-labelled phosphotyrosine antibody PT66 (Perkin Elmer, No.: AD0040).
In order to determine concentration-activity curves with PTK2-inhibitors the compounds are serially diluted first of all in 100% DMSO and then in kinase dilution buffer (20 mM TRIS/HCl pH 7.5, 0.1 mM EDTA, 0.1 mM EGTA, 0.286 mM sodium orthovanadate, 10% glycerol with the addition of freshly prepared BSA (fraction V, 1 mg/mL) and DTT (1 mM)) and 10 μL of each dilution are dispensed per well in a 96-well microtitre plate (clear U-shaped base plate, Greiner No. 650101) (the inhibitors are tested in duplicates) and mixed with 10 μL/well of PTK2 kinase (0.01 μg/well). PTK2 kinase is diluted accordingly beforehand with kinase dilution buffer. The diluted PTK2 inhibitor and the PTK2 kinase are pre-incubated for 1 h at RT and shaken at 500 revolutions per min. Then 10 μL/well poly-Glu-Tyr substrate (25 μg/well poly-Glu-Tyr, 0.05 μg/well biotinylated poly-Glu-Tyr dissolved in 250 mM TRIS/HCl pH 7.5, 9 mM DTT) are added. The reaction is started by the addition of 20 μL of ATP Mix (30 mM TRIS/HCl pH 7.5, 0.02% Brij, 0.2 mM sodium orthovanadate, 10 mM magnesium acetate, 0.1 mM EGTA, 1× phosphatase inhibitor cocktail 1 (Sigma, No.: P2850), 50 μM ATP (Sigma, No.: A3377; 15 mM stock solution))—the final concentration of DMSO is 0.5%. After 1 h kinase reaction (the plates are shaken at 500 rpm), the reaction is stopped by the addition of 12 μL/well of 100 mM EDTA, pH 8, and shaken for a further 5 min at RT (500 U/min). 55 μL of the reaction mixture are transferred into a streptavidin plate (Strepta Well High Bind (transparent, 96-well) made by Roche, No.: 11989685001) and incubated for 1 h at RT (shaking at 500 rpm). Then the microtitre plate is washed five times with 200 μL/well D-PBS (Invitrogen, No. 14190). 100 μL of a solution containing DELFIA Eu-N1 Anti-Phosphotyrosine PT66 antibody (Perkin Elmer, No.: AD0040, diluted 1:9000 in DELFIA test buffer (Perkin Elmer, No.: 1244-111)) is then added and it is incubated for 1 h at RT (shaking at 500 rpm). Then the plate is washed five times with 200 μL/well DELFIA washing buffer (Perkin Elmer, No.: 1244-114), 200 μL/well strengthening solution (Perkin Elmer, No.: 1244-105) is added and the whole is incubated for 10 min at RT (shaking at 300 rpm).
The time-delayed europium fluorescence is then measured in a microtitre plate reader (VICTOR^3, Perkin Elmer). The positive control consists of wells that contain solvent (0.5% DMSO in test buffer) and display uninhibited kinase activity. Wells that contain test buffer instead of enzyme act as a control for the background kinase activity.
The IC50 values are determined from concentration-activity analyses by iterative calculation using a sigmoid curve analysis algorithm (FIFTY, based on GraphPAD Prism Version 3.03) with a variable Hill coefficient.

PTK2 [2] = biological target: T1, PTK2; assay: PTK2 enzyme test Assay 1 (DELFIA, poly-Glu-Tyr substrate, PT60 antibody); type: biochemical; conditions: Assay 1 (values without *); 1 h pre-incubation, 50 μM ATP mix, final DMSO 2%
Experimental: as §1, with “through” for “by means of”, “PT60” for “PT66”, “AD00400).” for “AD0040).”
In order to determine concentration-activity curves with PTK2-inhibitors the compounds are serially diluted in 10% DMSO/H2O and 10 μL of each dilution are placed in each well of a 96-well microtitre plate (clear plate with a U-shaped base, Greiner No. 650101) (the inhibitors are tested in duplicates) and mixed with 10 μL/well of PTK2 kinase (0.01 μg/well). PTK2 kinase has been correspondingly diluted beforehand with kinase dilution buffer (20 mM TRIS/HCl pH 7.5, 0.1 mM EDTA, 0.1 mM EGTA, 0.286 mM sodium orthovanadate, 10% glycerol with the addition of freshly prepared BSA (fraction V, 1 mg/mL) and DTT (1 mM)). The test compound and the PTK2 kinase are pre-incubated for 1 h at RT and shaken at 500 revolutions per min. The reaction is started by the addition of 10 μL/well poly (Glu,Tyr) substrate (25 μg/well poly (Glu, Tyr), 0.05 μg/well biotinylated poly (Glu,Tyr) dissolved in 250 mM TRIS/HCl pH 7.5, 9 mM DTT)—the final concentration of DMSO is 2%. Then 20 μL of ATP Mix (30 mM TRIS/HCl pH 7.5, 0.02% Brij, 0.2 mM sodium orthovanadate, 10 mM magnesium acetate, 0.1 mM EGTA, 1× phosphatase inhibitor cocktail 1 (Sigma, No.: P2850), 50 μM ATP (Sigma, No.: A3377; 15 mM stock solution)) are added. After 1 h of kinase reaction (the plates are shaken at 500 rpm), the reaction is stopped by the addition of 12 μL/well 100 mM EDTA, pH 8.0 and shaken for a further 5 min at RT (500 rpm). 55 μL of the reaction mixture are transferred into a streptavidin plate (Strepta Well High Bind (transparent, 96-well) made by Roche, No.: 11989685001) and incubated for 1 h at RT (shaking at 500 rpm). Then the microtitre plate is washed three times with 200 μL/well D-PBS (Invitrogen, No. 14190). 100 μL of a solution containing DELFIA Eu-N1 Anti-Phosphotyrosine PT60 antibody (Perkin Elmer, No.: AD0040, diluted 1:2000 in DELFIA test buffer (Perkin Elmer, No.: 1244-111)) is then added and the mixture is incubated for 1 h at RT (shaking at 500 rpm). Then the plate is washed three times with 200 μL/well DELFIA washing buffer (Perkin Elmer, No.: 1244-114), 200 μL/well strengthening solution (Perkin Elmer, No.: 1244-105) are added and the mixture is incubated for 10 min at RT (shaking at 300 rpm).
The time-delayed europium fluorescence is then measured in a microtitre plate reader (VICTOR^3, Perkin Elmer). […] Wells that contain test buffer instead of enzyme are used as a control of the background kinase activity.
The IC50 values are determined from analyses of the concentration activity by iterative calculation with the aid of a sigmoid curve analysis algorithm (FIFTY, based on GraphPAD Prism Version 3.03) with a variable Hill coefficient.

T1 sequence (Q05397 whole entry): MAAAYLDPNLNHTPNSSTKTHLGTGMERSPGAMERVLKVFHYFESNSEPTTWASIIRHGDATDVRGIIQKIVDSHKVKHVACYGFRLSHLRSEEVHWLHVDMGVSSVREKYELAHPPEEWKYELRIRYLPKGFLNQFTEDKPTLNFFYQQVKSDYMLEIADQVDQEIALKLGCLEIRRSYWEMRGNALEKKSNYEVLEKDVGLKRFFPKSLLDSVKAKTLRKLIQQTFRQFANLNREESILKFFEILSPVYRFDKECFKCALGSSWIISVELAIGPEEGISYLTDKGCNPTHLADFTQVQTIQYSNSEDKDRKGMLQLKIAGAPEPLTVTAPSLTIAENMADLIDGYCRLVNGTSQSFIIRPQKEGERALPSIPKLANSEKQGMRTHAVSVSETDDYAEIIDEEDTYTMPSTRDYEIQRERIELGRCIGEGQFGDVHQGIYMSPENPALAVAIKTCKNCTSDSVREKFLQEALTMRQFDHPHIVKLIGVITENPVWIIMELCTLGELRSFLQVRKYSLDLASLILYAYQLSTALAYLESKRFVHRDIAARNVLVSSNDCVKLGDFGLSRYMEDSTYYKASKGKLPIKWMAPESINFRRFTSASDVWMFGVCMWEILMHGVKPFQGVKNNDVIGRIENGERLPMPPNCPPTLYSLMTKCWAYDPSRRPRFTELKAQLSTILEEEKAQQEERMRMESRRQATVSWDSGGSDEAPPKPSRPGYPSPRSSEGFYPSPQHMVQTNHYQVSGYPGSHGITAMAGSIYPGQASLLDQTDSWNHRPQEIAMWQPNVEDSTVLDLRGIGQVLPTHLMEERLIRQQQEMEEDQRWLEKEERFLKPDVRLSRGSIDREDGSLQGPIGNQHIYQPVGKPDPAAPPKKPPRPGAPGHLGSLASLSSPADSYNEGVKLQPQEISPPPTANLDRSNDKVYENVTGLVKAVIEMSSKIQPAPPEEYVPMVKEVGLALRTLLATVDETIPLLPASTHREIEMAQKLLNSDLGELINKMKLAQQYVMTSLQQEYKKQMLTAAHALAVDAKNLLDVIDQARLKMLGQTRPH

SMILES	IC50 (PTK2 [1]) [nM]	IC50 (PTK2 [2]) [nM]
COc1ccc(NC(=O)C2CCN(C)C2)cc1Nc1ncc(C(F)(F)F)c(N[C@@H]2Cc3ccccc3[C@H]2N(C)S(C)(=O)=O)n1 (stereo partly drawn) [Example I-61, 1-methyl-pyrrolidine-3-carboxylic acid (3-{4-[(1R,2R)-1-(methanesulphonyl-methyl-amino)-indan-2-ylamino]-5-trifluoromethyl-pyrimidin-2-ylamino}-4-methoxy-phenyl)-amide]	0.43	
COc1ccc(NC(=O)C2CCN(C)CC2)cc1Nc1ncc(C(F)(F)F)c(N[C@@H]2Cc3ccccc3[C@H]2N(C)S(C)(=O)=O)n1 [Example I-62, 1-methyl-piperidine-4-carboxylic acid (3-{4-[(1R,2R)-1-(methanesulphonyl-methyl-amino)-indan-2-ylamino]-5-trifluoromethyl-pyrimidin-2-ylamino}-4-methoxy-phenyl)-amide]	0.62	
COc1ccc(C(=O)NCCN(C)C)cc1Nc1ncc(C(F)(F)F)c(N[C@@H]2Cc3ccccc3[C@H]2N(C)S(C)(=O)=O)n1 [Example I-63, N-(2-dimethylamino-ethyl)-3-{4-[(1R,2R)-1-(methanesulphonyl-methyl-amino)-indan-2-ylamino]-5-trifluoromethyl-pyrimidin-2-ylamino}-4-methoxy-benzamide]	0.71	
COCCN1CCC(NC(=O)c2ccc(Nc3ncc(C(F)(F)F)c(N[C@@H]4Cc5ccccc5[C@H]4N(C)S(C)(=O)=O)n3)c(OC)c2)CC1 [Example I-65]		1
COc1cc(N2CCN(C(C)(C)C)CC2)ccc1Nc1ncc(C(F)(F)F)c(N[C@@H]2Cc3ccccc3[C@H]2N(C)S(C)(=O)=O)n1 [Example I-66, N-((1R,2R)-2-{2-[4-(4-tert-butyl-piperazin-1-yl)-2-methoxy-phenylamino]-5-trifluoromethyl-pyrimidin-4-ylamino}-indan-1-yl)-N-methyl-methanesulphonamide]	0.6	
CCc1cc(Nc2ncc(C(F)(F)F)c(N[C@@H]3Cc4ccccc4[C@H]3N(C)S(C)(=O)=O)n2)c(OC)cc1N1CCN(C)CC1 [Example I-67, N-((1R,2R)-2-{2-[5-ethyl-2-methoxy-4-(4-methyl-piperazin-1-yl)-phenylamino]-5-trifluoromethyl-pyrimidin-4-ylamino}-indan-1-yl)-N-methyl-methanesulphonamide]	0.68	
COc1cc(C(=O)NC2CCN(C)CC2)c(C)cc1Nc1ncc(Cl)c(N[C@@H]2Cc3ccccc3[C@H]2N(C)S(C)(=O)=O)n1 [Example I-68]		1
COc1ccc(C(=O)NC2CCN(C)CC2)cc1Nc1ncc(C(F)(F)F)c(N[C@@H]2Cc3ccccc3[C@H]2N(C)S(C)(=O)=O)n1 [Example I-69]	0.37	
COc1cc(N2CCNCC2)ccc1Nc1ncc(C(F)(F)F)c(N[C@@H]2Cc3ccccc3[C@H]2N(C)S(C)(=O)=O)n1 [Example I-70, N-{(1R,2R)-2-[2-(2-methoxy-4-piperazin-1-yl-phenylamino)-5-trifluoromethyl-pyrimidin-4-ylamino]-indan-1-yl}-N-methyl-methanesulphonamide]		0.98
CNCc1ccc(Nc2ncc(C(F)(F)F)c(N[C@@H]3Cc4ccccc4[C@H]3N(C)S(C)(=O)=O)n2)c(OC)c1 [Example I-71, N-{(1R,2R)-2-[2-(2-methoxy-4-methylaminomethyl-phenylamino)-5-trifluoromethyl-pyrimidin-4-ylamino]-indan-1-yl}-N-methyl-methanesulphonamide]		1
COc1cc(NC(=O)C2CCN(C)C2)ccc1Nc1ncc(C(F)(F)F)c(N[C@@H]2Cc3ccccc3[C@H]2N(C)S(C)(=O)=O)n1 (stereo partly shown) [Example I-72]	0.74	
COc1cc(NC(=O)C2CCN(C)CC2)ccc1Nc1ncc(C(F)(F)F)c(N[C@@H]2Cc3ccccc3[C@H]2N(C)S(C)(=O)=O)n1 [Example I-73, 1-methyl-piperidine-4-carboxylic acid (4-{4-[(1R,2R)-1-(methanesulphonyl-methyl-amino)-indan-2-ylamino]-5-trifluoromethyl-pyrimidin-2-ylamino}-3-methoxy-phenyl)-amide]	0.48	
COCCN1CCN(c2ccc(Nc3ncc(C(F)(F)F)c(N[C@@H]4Cc5ccccc5[C@H]4N(C)S(C)(=O)=O)n3)c(OC)c2)CC1 [Example I-84]		1
COc1cc(NC(C)=O)ccc1Nc1ncc(C(F)(F)F)c(N[C@@H]2Cc3ccccc3[C@H]2N(C)S(C)(=O)=O)n1 [Example I-90]		3
COc1cc(Nc2ncc(C(F)(F)F)c(N[C@@H]3Cc4ccccc4[C@H]3N(C)S(C)(=O)=O)n2)ccc1NC(C)=O [Example I-92]		2
CNC(=O)c1ccc(Nc2ncc(C(F)(F)F)c(N[C@@H]3c4ccccc4C[C@H]3NS(C)(=O)=O)n2)c(OC)c1 [Example I-95]		6
COc1nc(C)ccc1Nc1ncc(C(F)(F)F)c(N[C@@H]2Cc3ccccc3[C@H]2N(C)S(C)(=O)=O)n1 [Example I-96]		11
COc1cc(C(=O)NCCN(C)C)c(C)cc1Nc1ncc(Cl)c(N[C@@H]2Cc3ccccc3[C@H]2N(C)S(C)(=O)=O)n1 [Example I-97]		2
COc1cc(C(=O)NC2CCN(C)CC2)ccc1Nc1ncc(Br)c(N[C@@H]2Cc3ccccc3[C@H]2N(C)S(C)(=O)=O)n1 [Example I-98, 4-{5-bromo-4-[(1R,2R)-1-(methanesulphonyl-methyl-amino)-indan-2-ylamino]-pyrimidin-2-ylamino}-3-methoxy-N-(1-methyl-piperidin-4-yl)-benzamide]		1
